# Laboratory results reported in article PMC9054013, “FCHO controls AP2’s initiating role in endocytosis through a PtdIns(4,5)P2-dependent switch” (Science Advances, 2022).
# Where no end group is shown, it is not given here.
# Columns and labels:
# [1] = biological target: T1, AP2 α-appendage (Mus musculus, UniProt P17427); assay: Isothermal titration calorimetry with α-appendage; type: binding; conditions: ITC
# T1 construct: GST-tagged Cμ2 and α-appendage proteins were made as in ([51]); GST (cleaved yes); made in house; host or cells: Escherichia coli BL21 plyS
# [2] = test system: BR4-mutated (K339A, K341A, K343A, and K345A) His6-MBP-Cμ2; assay: GST pull-down of BR4-mutated His6-MBP-Cμ2; type: binding; conditions: Coomassie SDS-PAGE
# Protocol: A measured amount of GST or GST-fusion protein was immobilized onto 60 μl of 50% slurry of GSH Sepharose beads in microfuge tubes and the volume made up to 750 μl with buffer. After incubation at 4°C with continuous mixing, the Sepharose beads were recovered by centrifugation (10,000g for 1 min), and the supernatants were removed. Each bead pellet was washed three times with cold assay buffer, and most of the buffer was carefully aspirated, leaving a final equivalent volume of ~50 μl.
# [3] = biological target: T2, Cμ2; conditions: read-out: KD of YxxΦ cargo peptide binding to Cμ2; cited from earlier work
# T2 construct: Surface representations of the Cμ2 subdomain structure; His6; made in house; host or cells: Escherichia coli BL21 plyS
# Source text: page 20: Fig.S8 Details of FCHO C block binding to α -appendage and to Cµ2 A, B FCHO1 C block (claret) bound to AP2 α-appendage (blue). […] B 1.4 Å resolution 2Fo-Fc map contoured at 1.6σ. An apo structure of the α-appendage was used as MR search model (PDB 1W80 without ligands) – the direction of the peptide chain is clearly opposite to that of the published DP[FW], FxDxF motif/α-appendage complexes. C, D FCHO2 C block (claret ...
# T1 sequence (P17427 701-938 limits assumed): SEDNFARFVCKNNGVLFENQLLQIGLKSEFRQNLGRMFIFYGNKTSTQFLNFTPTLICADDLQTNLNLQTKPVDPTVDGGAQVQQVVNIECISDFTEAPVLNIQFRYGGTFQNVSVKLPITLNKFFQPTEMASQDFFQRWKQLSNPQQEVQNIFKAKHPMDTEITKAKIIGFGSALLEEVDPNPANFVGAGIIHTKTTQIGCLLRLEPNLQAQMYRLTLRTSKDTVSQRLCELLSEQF
substance,measurement,setting,value
"FCHO1 C: GST-FCHO1 C (residues 414 to 444), Fig. 4B construct ({GST}-SAPRTSSCAERLQSEEQVSKNLFGPPLESAF; UniProt O14526 414-444, looked up, fragment)",n (stoichiometry) of C block peptide binding to α-appendage,[1],1.0
"FCHO2 C: GST-FCHO2 C (residues 413 to 444), Fig. 4B construct ({GST}-SAPPNEKGTSDLLAWDPLFGPSLDSSSSSSLT; UniProt Q0JRZ9 413-444, looked up, fragment)",n (stoichiometry) of C block peptide binding to α-appendage,[1],1.0
"SERINC3-L10: GST SERINC-L10 (residues 354 to 404), Serinc3 loop binding Cμ2 only at BR4 (RTSTNSQVDKLTLSGSDSVILGDTTTSGASDEEDGQPRRAVDNEKEGVQYS; also: GST fusion, end not given here)",binding to BR4-mutated Cμ2 compared with WT Cμ2,[2],severely inhibited
"DYQRLN [TGN38, TGN38 YxxΦ cargo peptide (DYQRLN)]",Kd,[3],~2 µM
SDLLAWDPLFG [FCHO2 C peptide],Kd,"[1]; 100 mM tris pH 7.4, 150 mM NaCl, 0.25 mM TCEP, 12°C, mean ± SEM, minimum three independent runs, read-out: KD of C block peptide binding to α-appendage",100 to 200 µM
